Experimental findings from patent US20250034135A1, “ANTI-APOPTOTIC PROTEIN BCL-2 INHIBITOR, PHARMACEUTICAL COMPOSITION AND USES THEREOF” (HANGZHOU HEALZEN THERAPEUTICS CO., LTD., priority 2021, published 2025) are described below.

Where two headings read alike, the source gives them in different places.

The target in one assay is BCL2 (Homo sapiens (Human), UniProt P10415). Put plainly: Molecular level activity test of anti-apoptotic protein BCL2 (HTRF, binding to Bim peptide). To be noted: HTRF, binding of BCL2 to Bim peptide; read-out: BCL2 nM (inhibitory activity, IC50). The method, boiled down:
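HTRF binding of His-tagged recombinant BCL2 to biotin-tagged Bim peptide, compound in 2% DMSO. After 1 h reaction, anti-His and streptavidin-XL665 detection reagents were added and incubated 4 h at room temperature before reading.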

A further assay concerns the target BCL2 (G101V) (Homo sapiens (Human), UniProt P10415, G101V). In words: Molecular level activity test of anti-apoptotic protein BCL2 (G101V) (HTRF, binding to Bim peptide). To be noted: inhibition of BCL2 (G101V) binding to Bim peptide, read-out: BCL-2 (G101V). How it is done:
(§1) The detection of the binding ability between anti-apoptotic protein BCL2 (G101V) and pro-apoptotic protein Bim was performed using Homogeneous Time-Resolved Fluorescence technology. The reaction of this method occurred in a white shallow 384-well plate, with a total reaction volume of 10 μL. Specifically, it included 2 μL of the compound to be tested (2% DMSO), 4 μL His-tagged recombinant protein, and 4 μL Biotin-tagged BIM protein peptide. After 1 hour of reaction, 5 L of each Anti-His and streptavidin-tagged XL665 antibody diluents diluted with a detection buffer were added. After incubating at room temperature for 4 hours, the values were read using the Envision multifunctional microplate reader to detect the effect of the compound to be tested on the binding ability of BCL2 (G101V) to BIM protein peptides.

A further assay deals with BCL2 (D103Y) (Homo sapiens (Human), UniProt P10415, D103Y). Put plainly: Molecular level activity test of BCL2 (D103Y) (HTRF, binding to Bim peptide). To be noted: read-out: BCL-2 (D103Y) (nM) (inhibitory activity, IC50). How it is done:
as §1, with “BCL2 (D103Y)” for “BCL2 (G101V)”, “5 μL” for “5 L”
(Time-resolved FRET reads energy transfer from a long-lived donor to a nearby acceptor.)

For another assay, the system named is RS4; 11 cells. In words: Tumor proliferation inhibitory activity test (MTS) on RS4; 11. The assay is classed as cell-based. The note with it: Homo sapiens, RS4-11, 72 h, 3 days incubation. How it is done:
The cell proliferation inhibitory ability of the compounds on RS4; 11 was tested using the MTS method. MTS is a tetrazolium blue salt compound that can be reduced by various dehydrogenases in live cell mitochondria to their respective colored methylzan products. Its color depth is highly correlated with the number of live cells in certain sensitive cell lines within a certain range. RS4; 11, RS4; 11 (BCL-2-G101V) and MOLT-4 tumor cells were cultivated separately and collected, 180 μL of cell suspension was added to each well in a 96-well cell plate, 20 μL of DMSO with a final concentration of 0.2% was added to the control cell wells, 20 μL of gradient diluted compounds were added to cell wells, and the treated cells were incubated in a 5% CO2 incubator at 37° C. for 3 days. After the incubation was completed, the reaction solution was prepared according to the MTS reagent kit, 20 μL was added per well and incubated in a 5% CO2 incubator at 37° C. for 3-4 hours. The absorbance value at 490 nm was read using an enzyme-linked immunosorbent assay (ELISA) plate, and the absorbance value at 690 nm was used as the background value, with OD490 nm-OD690 nm as the final raw data. The formula for calculating the inhibition ratio of compounds was as follows: inhibition ratio=(ODDMSO−ODCompound)/(ODDMSO−ODblank)×100%.

Another assay concerns the target BCL-XL (Homo sapiens (Human), UniProt Q07817). Put plainly: BCL-XL enzyme molecular level activity test (HTRF, binding to BIM peptide). The note with it: binding of BCL-XL to BIM peptide, read-out: BCL-XL inhibitory activity (IC50). How it is done:
In a white shallow 384-well plate, a total reaction volume was 10 μL. Specifically, it included 2 μL of the compound to be tested (2% DMSO), […] His-tagged recombinant protein, and 4 μL Biotin-tagged BIM protein peptide. After 1 hour of reaction, 5 μL of each Anti-His and streptavidin-tagged XL665 antibody diluents diluted with a detection buffer were added. After incubating at room temperature for 4 hours, the values were read using the Envision multifunctional microplate reader to detect the effect of the compound to be tested on the binding ability of BCL-XL to BIM protein peptides. The Envision parameter settings were exciting light at 320 nm, and emitting light at 615 nm and 665 nm. The binding ability of anti-apoptotic proteins to Bim protein peptides was indirectly reflected by the signal ratio of 665 nm and 615 nm. In the reaction, background wells without BCL2 and active wells for full binding of recombinant proteins without compounds and Bim protein peptides were set up.

BCL-XL, sequence (Q07817 whole entry): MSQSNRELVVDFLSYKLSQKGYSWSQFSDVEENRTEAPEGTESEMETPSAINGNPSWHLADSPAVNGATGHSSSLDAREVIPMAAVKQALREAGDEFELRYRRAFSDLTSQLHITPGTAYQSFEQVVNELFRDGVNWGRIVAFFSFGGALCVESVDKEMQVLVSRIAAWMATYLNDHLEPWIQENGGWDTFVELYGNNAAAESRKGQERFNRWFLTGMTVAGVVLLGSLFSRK

Turning to `CC(C)c1ccccc1[C@@H]1CCCN1C1CC2(CCN(c3cc(Oc4cnc5[nH]ccc5c4)c(C(=O)NS(=O)(=O)c4cc([N+](=O)[O-])c(NCC5(F)CCN(C6COC6)CC5)c5[nH]cnc45)cn3)CC2)C1` [compound 019, (S)-4-((1H-pyrrolo[2,3-b]pyrid-5-yl)oxy)-N-((7-(((4-fluoro-1-(oxocyclobut-3-yl)piperid-4-yl)methyl)amino)-6-nitro-1H-benzo[d]imidazol-4-yl)sulfonyl)-6-(2-(2-(2-isopropylphenyl)pyrrolidin-1-yl)-7-azaspiro[3.5]non-7-yl) nicotinamide], the IC50 is less than 10 nM at BCL2; less than 10 nM at BCL2 (G101V); less than 10 nM at BCL2 (D103Y); 0.5 to 1 nM in the assay on RS4; 11 cells; more than 1 µM on BCL-XL (values given in μM).
Regarding `COc1ccc(CN2CCN(C3CC4(CCN(c5cc(Oc6cnc7[nH]ccc7c6)c(C(=O)NS(=O)(=O)c6cc([N+](=O)[O-])c(NCC7CCOCC7)c7c6OCO7)cc5F)CC4)C3)[C@H](c3ccccc3C(C)C)C2)cc1` [compound 120, (R)-2-((1H-pyrrolo[2,3-b]pyrid-5-yl)oxy)-5-fluoro-4-(2-(2-(2-isopropylphenyl)-4-(4-methoxybenzyl)piperazin-1-yl)-7-azaspiro[3.5]non-7-yl)-N-((6-nitro-7-(((tetrahydro-2H-pyran-4-yl)methyl)amino)benzo[d][1,3]dioxocyclopent-4-yl)sulfonyl)benzamide], the IC50 is less than 10 nM on BCL2; less than 10 nM at BCL2 (G101V); less than 10 nM at BCL2 (D103Y); 0.5 to 1 nM in the assay on RS4; 11 cells; 1.6 µM at BCL-XL (values given in μM).
Regarding `COc1ccc(CN2CCN(C3CC4(CCN(c5ccc(C(=O)NS(=O)(=O)c6cc([N+](=O)[O-])c(NCC7CCOCC7)c7c6OCO7)c(Oc6cnc7[nH]ccc7c6)c5)CC4)C3)[C@H](c3ccccc3C(C)C)C2)cc1` [compound 145, (R)-2-((1H-pyrrolo[2,3-b]pyrid-5-yl)oxy)-4-(2-(2-(2-isopropylphenyl)-4-(4-methoxybenzyl)piperazin-1-yl)-7-azaspiro[3.5]non-7-yl)-N-((6-nitro-7-(((tetrahydro-2H-pyran-4-yl)methyl)amino)benzo[d][1,3]dioxocyclopent-4-yl)sulfonyl)benzamide], the IC50 was less than 10 nM at BCL2; less than 10 nM on BCL2 (G101V); less than 10 nM at BCL2 (D103Y); less than 0.5 nM with RS4; 11 cells; more than 1 µM on BCL-XL (values given in μM).
For `COc1ccc(CN2CCN(C3CC4(CCN(c5ccc(C(=O)NS(=O)(=O)c6cc([N+](=O)[O-])c(NCC7CCOCC7)c7c6OCCO7)c(Oc6cnc7[nH]ccc7c6)c5)CC4)C3)[C@H](c3ccccc3C(C)C)C2)cc1` [compound 146, (R)-2-((1H-pyrrolo[2,3-b]pyrid-5-yl)oxy)-4-(2-(2-(2-isopropylphenyl)-4-(4-methoxybenzyl)piperazin-1-yl)-7-azaspiro[3.5]non-7-yl)-N-((7-nitro-8-(((tetrahydro-2H-pyran-4-yl)methyl)amino)-2,3-dihydrobenzo[b][1,4]dioxan-5-yl)sulfonyl)benzamide], the IC50 at BCL2 is less than 10 nM; at BCL2 (G101V), less than 10 nM; on BCL2 (D103Y), less than 10 nM; in the assay on RS4; 11 cells it was 0.5 to 1 nM; on BCL-XL (values given in μM), 2.7 µM.
`COc1ccc(CN2CCN(C3CC4(CCN(c5cc(Oc6cnc7[nH]ccc7c6)c(C(=O)NS(=O)(=O)c6ccc(NC[C@H]7CC[C@](C)(O)CC7)c([N+](=O)[O-])c6)cc5F)CC4)C3)[C@H](c3ccccc3C(C)C)C2)cn1` [compound 236, 2-((1H-pyrrolo[2,3-b]pyrid-5-yl)oxy)-5-fluoro-N-((4-((((1r, 4r)-4-hydroxy-4-methylcyclohexyl)methyl)amino)-3-nitrophenyl)sulfonyl)-4-(2-((R)-2-(2-isopropylphenyl)-4-((6-methoxypyrid-3-yl)methyl)piperazin-1-yl)-7-azaspiro[3.5]non-7-yl)benzamide]: the IC50 at BCL2 was less than 10 nM; at BCL2 (G101V), less than 10 nM; at BCL2 (D103Y), less than 10 nM; with RS4; 11 cells, 0.5 to 1 nM; on BCL-XL (values in nM), more than 0.5 µM.
Consider `COc1ccc(CN2CCN(C3CC4(CCN(c5cc(Oc6cnc7[nH]ccc7c6)c(C(=O)NS(=O)(=O)c6ccc(NC[C@H]7CC[C@](C)(O)CC7)c([N+](=O)[O-])c6)cc5F)CC4)C3)[C@H](c3ccccc3C(C)C)C2)cc1OC` [compound 237, 2-((1H-pyrrolo[2,3-b]pyrid-5-yl)oxy)-4-(2-((R)-4-(3,4-dimethoxybenzyl)-2-(2-isopropylphenyl)piperazin-1-yl)-7-azaspiro[3.5]non-7-yl)-5-fluoro-N-((4-((((1r, 4r)-4-hydroxy-4-methylcyclohexyl)methyl)amino)-3-nitrophenyl)sulfonyl)benzamide], for which the IC50 at BCL2 was less than 10 nM; on BCL2 (G101V), less than 10 nM; at BCL2 (D103Y), less than 10 nM; in the assay with RS4; 11 cells, 0.5 to 1 nM; at BCL-XL (values in nM), more than 0.5 µM.
Regarding `COc1ccc(CN2CCN(C3CC4(CCN(c5cc(Oc6cnc7[nH]cc(F)c7c6)c(C(=O)NS(=O)(=O)c6ccc(NCC7CCOCC7)c([N+](=O)[O-])c6)cc5F)CC4)C3)[C@H](c3ccccc3C(C)C)C2)cc1` [compound 240, (R)-5-fluoro-2-((3-fluoro-1H-pyrrolo[2,3-b]pyrid-5-yl)oxy)-4-(2-(2-(2-isopropylphenyl)-4-(4-methoxybenzyl)piperazin-1-yl)-7-azaspiro[3.5]non-7-yl)-N-((3-nitro-4-(((tetrahydro-2H-pyran-4-yl)methyl)amino)phenyl)sulfonyl)benzamide], the IC50 was less than 10 nM on BCL2; less than 10 nM at BCL2 (G101V); less than 10 nM at BCL2 (D103Y); 0.5 to 1 nM in the assay with RS4; 11 cells; more than 0.5 µM at BCL-XL (values in nM).
For the compound `CNCc1ccc(CN2CCN(C3CC4(CCN(c5cc(Oc6cnc7[nH]ccc7c6)c(C(=O)NS(=O)(=O)c6ccc(NCC7(F)CCOCC7)c([N+](=O)[O-])c6)cc5F)CC4)C3)[C@H](c3ccccc3C(C)C)C2)cc1` [compound 243, (R)-2-((1H-pyrrolo[2,3-b]pyrid-5-yl)oxy)-5-fluoro-N-((4-(((4-fluorotetrahydro-2H-pyran-4-yl)methyl)amino)-3-nitrophenyl)sulfonyl)-4-(2-(2-(2-isopropylphenyl)-4-(4-((methylamino)methyl)benzyl)piperazin-1-yl)-7-azaspiro[3.5]non-7-yl)benzamide], the IC50 at BCL2 was less than 10 nM; on BCL2 (G101V), less than 10 nM; at BCL2 (D103Y) it was less than 10 nM; in the assay on RS4; 11 cells it was 0.5 to 1 nM; at BCL-XL (values in nM), more than 0.5 µM.
